According to article PMC10925992 (Heliyon, 2024):
Where a name gives a salt, the structure may show the parent alone.

Experiments:
[1] = target: catalytic domain of USP7 (USP7-CD) (Homo sapiens, UniProt Q93009); experiment: STD-NMR titration for dissociation constant; assay type: binding
USP7-CD = USP7-CD (Homo sapiens, UniProt Q93009); experiment: Thermal shift assay; settings: decrease of Tm of USP7-CD, USP7 10 μM, ligand 1 mM
[2] = tested on: USP7, MDM2 and c-Myc mRNA in HCT-116 cells; experiment: Quantitative gene expression analysis; assay type: cell-based, human; settings: HCT116, compound at IC50 concentration, 48 h, versus untreated cells
HCT116 cells = experiment: MTT anti-proliferation assay; assay type: cell-based, human; settings: for IC50: Homo sapiens, HCT-116, 48 h; for inhibition of proliferation of cancerous cells: HCT116, MTT, 48 h
[3] = tested on: p53 mRNA in HCT-116 cells; experiment: Quantitative gene expression analysis; assay type: cell-based, human; settings: HCT116, compound at IC50 concentration, 48 h, versus untreated cells
USP7 = settings: read-out: IC50 of USP7 inhibition; no reference given; cited from earlier work

Chain of catalytic domain of USP7 (USP7-CD) (Q93009 208-560): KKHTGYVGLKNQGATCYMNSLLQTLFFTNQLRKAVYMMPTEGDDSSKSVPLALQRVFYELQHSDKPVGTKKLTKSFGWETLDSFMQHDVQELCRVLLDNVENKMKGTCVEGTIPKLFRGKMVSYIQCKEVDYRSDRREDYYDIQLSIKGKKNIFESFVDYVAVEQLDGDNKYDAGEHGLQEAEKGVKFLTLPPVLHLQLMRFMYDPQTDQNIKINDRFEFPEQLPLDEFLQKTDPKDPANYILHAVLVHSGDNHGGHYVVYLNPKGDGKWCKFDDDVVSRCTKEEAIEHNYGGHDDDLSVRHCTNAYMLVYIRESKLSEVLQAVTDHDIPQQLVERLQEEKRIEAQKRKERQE
Chain of USP7-CD (Q93009 208-560): as above

Kd [1] [µM]	SMILES	mRNA expression of proto-oncogenes (USP7, MDM2, c-Myc) [2]	other results
620 ± 560	CC(C(=O)O)c1cccc(C(=O)c2ccccc2)c1 (stereo not shown) [Compound 3, Ketoprofen]		
1220 ± 1120	CN(C)CCC[C@@]1(c2ccc(F)cc2)OCc2cc(C#N)ccc21 [Compound 11, Escitalopram]	significantly decreased	IC50 (HCT116 cells): 227.6 ± 0.71 µM; mRNA expression of tumor suppressor gene (p53) [3]: non-significantly

The remaining lines, values behind:

SMILES	Kd [1] [µM]	mRNA expression of proto-oncogenes (USP7, MDM2, c-Myc) [2]	other results
Nc1c(CC(=O)O)cccc1C(=O)c1ccc(Br)cc1 [Compound 1, Bromfenac Sodium]	780 ± 530		
O=C(O)Cc1ccccc1Nc1c(Cl)cccc1Cl [Compound 2, Diclofenac Sodium]	760 ± 560		Thermal Shift (Δtm) (USP7-CD): 2.40 °C
CC(CCc1ccccc1)NCC(O)c1ccc(O)c(C(N)=O)c1 (stereo not shown) [Compound 4, Labetalol Hydrochloride]	910 ± 700		Thermal Shift (Δtm) (USP7-CD): 3.95 °C
CCN(CC)CC#CCOC(=O)C(O)(c1ccccc1)C1CCCCC1 (stereo not shown) [Compound 6, Oxybutynin HCl]	660 ± 460	significantly decreased	
CN1CCC(=C2c3ccccc3CC(=O)c3sccc32)CC1 [Compound 7, Ketotifen]	1100 ± 880	significantly decreased	IC50 (HCT116 cells): 89 ± 1.55 µM; mRNA expression of tumor suppressor gene (p53) [3]: non-significantly
Clc1ccccc1CN1CCc2sccc2C1 [Compound 8, Ticlopidine Hydrochloride]	1490 ± 1410		inhibition of proliferation of cancerous cells (HCT116 cells): inactive
Nc1nnc(-c2cccc(Cl)c2Cl)c(N)n1 [Compound 9, Lamotrigine]	1000 ± 560		inhibition of proliferation of cancerous cells (HCT116 cells): inactive
COc1ccnc(C[S+]([O-])c2nc3ccc(OC(F)F)cc3[nH]2)c1OC (stereo not shown) [Compound 10, Pantoprazole Sodium]	870 ± 280	significantly decreased	IC50 (HCT116 cells): 222 ± 0.29 µM
N#Cc1nc2c(nc1C#N)-c1ccc(Cl)cc1C2=O [HBX 41108]			IC50 (USP7): 0.424 µM; Thermal Shift (Δtm) (USP7-CD; listed as 12): 6.20 °C
